Molecules are shown by their SMILES. Where only a bound is given, the exact number is not on record here.

Here are results for six molecules from patent US11319316B2, “Compounds that induce degradation of anti-apoptotic Bcl-2 family proteins and the uses thereof” (BioVentures, LLC, priority 2016, dated 2022).

Common to all, as to format: cell-based
One test concerns Normal WI38 (NSC). The test is described as follows: Viability of normal WI38 cells (NSC), 72 h, PI staining and flow cytometry. The conditions noted are these: Homo sapiens, WI-38, viable (PI-) cells as percentage of vehicle control. The method, then: (§1) Normal WI38 (NSC) and IR-induced senescent WI38 cells (IR-SC) were incubated with vehicle or increasing concentrations of compounds of Formula (I) or Formula (II) for 72 hours. The cells were digested with 0.25% trypsin and 1 mM EDTA, and harvested in PBS containing 2% FBS. After incubation with propidium iodide (PI, 100 ng/ml) in PBS at room temperature for 1 minute, cells were centrifuged at 1,200 rpm for 6 minutes to remove PI and then resuspended in PBS containing 2% FBS for analysis using a flow cytometer. Viable cells (PI-cells) were analyzed by flow cytometry at a constant flow rate to count the number of cells and calculated as a percentage of control cells treated with vehicle. Table 1 depicts the EC50 values of the compounds of Formula (I) and compounds of Formula (II) against normal WI38 and IR-induced senescent WI38.

The subject of test [1] is IR-induced senescent WI38 cells (IR-SC). The test is described as follows: Viability of IR-induced senescent WI38 cells (IR-SC), 72 h, PI staining and flow cytometry. To be noted: for EC50: Homo sapiens, WI-38, IR-induced senescent WI38 cells, 72 hours, viable (PI-) cells as percentage of vehicle control; for Ratio NSC/SC: ratio of WI38 EC50 in NSC to EC50 in IR-SC; for Selective inhibition of IR-SC WI38 cells versus normal WI38 cells: FIG. 2A, FIG. 2B, increasing concentrations. The method, then:
as §1

In the next test the test system is RS4; 11 cancer cells. The test is described as follows: Cancer cell viability by MTS, 72 h, RS4;11. To be noted: Homo sapiens, RS4;11 cells. The method, then:
(§2) RS4; 11 and NCI-H146 cancer cells were incubated with vehicle or increasing concentrations of compounds of Formula (I) and Formula (II). At 72 hours post-treatment cell viability was measured by MTS and EC50 was calculated as a percentage of control cells treated with vehicle. Table 1 depicts the EC50 values of compounds of Formula (I) and Formula (II) against RS4; 11 and NCI-H146.

Another test relates to NCI-H146 cancer cells. The test is described as follows: Cancer cell viability by MTS, 72 h, NCI-H146. The conditions noted are these: Homo sapiens. The method, then: as §2

Regarding `CC1(C)CCC(CN2CCN(c3ccc(C(=O)NS(=O)(=O)c4ccc(NCC5CCN(C(=O)CCCn6cc(COCCOCCOCCNc7cccc8c7C(=O)N(C7CCC(=O)NC7=O)C8=O)nn6)CC5)c([N+](=O)[O-])c4)c(Oc4cnc5[nH]ccc5c4)c3)CC2)=C(c2ccc(Cl)cc2)C1` (stereo not shown) [XZ-14523, 2-((1H-pyrrolo[2,3-b]pyridin-5-yl)oxy)-4-(4-((4′-chloro-5,5-dimethyl-3,4,5,6-tetrahydro-[1,1′-biphenyl]-2-yl)methyl)piperazin-1-yl)-N-((4-(((1-(4-(4-((2-(2-(2-((2-(2,6-dioxopiperidin-3-yl)-1,3-dioxoisoindolin-4-yl)amino)ethoxy)ethoxy)ethoxy)methyl)-1H-1,2,3-triazol-1-yl)butanoyl)piperidin-4-yl)methyl)amino)-3-nitrophenyl)sulfonyl)benzamide], the EC50 (commonly the concentration needed to bring the measured effect to its halfway point) in the test with Normal WI38 (NSC) was over 10 µM; in test [1] it was over 10000 nM; in the test with RS4; 11 cancer cells, 161 nM; with NCI-H146 cancer cells, 1260 nM.

Regarding `CC1(C)CCC(c2ccc(Cl)cc2)=C(CN2CCN(c3ccc(C(=O)NS(=O)(=O)c4ccc(N[C@H](CCN5CCN(C(=O)COCCOCCOCCNc6cccc7c6C(=O)N(C6CCC(=O)NC6=O)C7=O)CC5)CSc5ccccc5)c(S(=O)(=O)C(F)(F)F)c4)cc3)CC2)C1` (stereo partly shown) [XZ-14510], the EC50 with Normal WI38 (NSC) is over 10 µM; in test [1], 177 nM; in the test on RS4; 11 cancer cells it was 220 nM; with NCI-H146 cancer cells it was 112 nM. Besides, the “Ratio NSC/SC” value in test [1] is on record as over 56.

The molecule `CC(C)(C)OC(=O)N1CCN(CC#Cc2ccc(OCCCc3sc(N4CCc5cccc(C(=O)Nc6nc7ccccc7s6)c5C4)nc3C(=O)O)c(F)c2)CC1` [XZ-13861, 2-(8-(benzo[d]thiazol-2-ylcarbamoyl)-3,4-dihydroisoquinolin-2(1H)-yl)-5-(3-(4-(3-(4-(tert-butoxycarbonyl)piperazin-1-yl)prop-1-ynyl)-2-fluorophenoxy)propyl)thiazole-4-carboxylic acid] showed an EC50 with Normal WI38 (NSC) of 32.8 µM. In test [1], the “Selective inhibition of IR-SC WI38 cells versus normal WI38 cells” value was “selectively inhibit IR-SC WI38 cells but not normal WI 38 cells in a dose dependent manner”, a half-maximal effect (EC50) was put at 3120 nM and the “Ratio NSC/SC” value is on record as 10.51.

As for `O=C1CCC(N2C(=O)c3cccc(NCCOCCOCCOCc4cn(CCCC(=O)N5CCN(CC#Cc6ccc(OCCCc7sc(N8CCc9cccc(C(=O)Nc%10nc%11ccccc%11s%10)c9C8)nc7C(=O)O)c(F)c6)CC5)nn4)c3C2=O)C(=O)N1` (stereo not shown) [XZ-12906, 2-(8-(benzo[d]thiazol-2-ylcarbamoyl)-3,4-dihydroisoquinolin-2(1H)-yl)-5-(3-(4-(3-(4-(4-(4-((2-(2-(2-(2-(2,6-dioxopiperidin-3-yl)-1,3-dioxoisoindolin-4-ylamino)ethoxy)ethoxy)ethoxy)methyl)-1H-1,2,3-triazol-1-yl)butanoyl)piperazin-1-yl)prop-1-ynyl)-2-fluorophenoxy)propyl)thiazole-4-carboxylic acid], in test [1], the “Selective inhibition of IR-SC WI38 cells versus normal WI38 cells” value is on record as “selectively inhibit IR-SC WI38 cells but not normal WI 38 cells in a dose dependent manner”.

Turning to `O=C1CCC(N2C(=O)c3cccc(NCCOCCOCc4cn(CCCC(=O)N5CCN(CC#Cc6ccc(OCCCc7sc(N8CCc9cccc(C(=O)Nc%10nc%11ccccc%11s%10)c9C8)nc7C(=O)O)c(F)c6)CC5)nn4)c3C2=O)C(=O)N1` (stereo not shown) [XZ-14424, 2-(8-(benzo[d]thiazol-2-ylcarbamoyl)-3,4-dihydroisoquinolin-2(1H)-yl)-5-(3-(4-(3-(4-(4-(4-((2-(2-((2-(2,6-dioxopiperidin-3-yl)-1,3-dioxoisoindolin-4-yl)amino)ethoxy)ethoxy)methyl)-1H-1,2,3-triazol-1-yl)butanoyl)piperazin-1-yl)prop-1-yn-1-yl)-2-fluorophenoxy)propyl)thiazole-4-carboxylic acid], the figures for the EC50 (with Normal WI38 (NSC); in test [1]) were 1.6 µM and 1400 nM, respectively. The “Ratio NSC/SC” value in test [1] was determined as 1.2.

On to `CC1(C)CCC(CN2CCN(c3ccc(C(=O)NS(=O)(=O)c4ccc(NCC5CCOCC5)c([N+](=O)[O-])c4)c(Oc4cnc5[nH]ccc5c4)c3)CC2)=C(c2ccc(Cl)cc2)C1` [ABT-199, venetoclax, reference compound], for which the EC50 with Normal WI38 (NSC) was over 10 µM; in test [1], over 10000 nM.
